# Laboratory results: EP4782453A1 (Beyang Therapeutics Co., Ltd., priority 2023, dated 2025)
# Target: T1, Menin-MLL (Homo sapiens, UniProt O00255)
# T1 construct: His-Menin (M1-L615 end); purchased BIORTUS BP9210
# T1 sequence (O00255 1-615 isoform O00255-1): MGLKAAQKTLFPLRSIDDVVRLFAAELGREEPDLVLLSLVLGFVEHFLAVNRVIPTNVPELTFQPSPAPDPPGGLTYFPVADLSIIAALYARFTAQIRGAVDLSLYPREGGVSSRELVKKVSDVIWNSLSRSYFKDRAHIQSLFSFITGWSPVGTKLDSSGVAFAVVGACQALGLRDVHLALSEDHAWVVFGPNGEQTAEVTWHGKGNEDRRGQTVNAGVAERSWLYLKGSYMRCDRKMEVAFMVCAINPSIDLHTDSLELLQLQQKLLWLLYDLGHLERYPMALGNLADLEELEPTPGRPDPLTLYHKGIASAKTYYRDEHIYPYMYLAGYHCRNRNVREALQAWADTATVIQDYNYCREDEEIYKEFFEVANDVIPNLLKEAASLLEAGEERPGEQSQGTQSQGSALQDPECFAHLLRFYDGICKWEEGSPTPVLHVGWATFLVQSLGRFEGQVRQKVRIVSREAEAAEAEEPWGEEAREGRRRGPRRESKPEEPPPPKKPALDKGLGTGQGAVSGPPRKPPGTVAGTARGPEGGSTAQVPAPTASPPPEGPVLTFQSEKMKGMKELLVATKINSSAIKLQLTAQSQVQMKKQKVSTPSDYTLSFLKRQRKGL
# Assay: Inhibitory activity against Menin-MLL binding (fluorescence polarization)
# Details: Menin-MLL IC50, fluorescence polarization; 150 nM His-Menin, 15 nM FITC-MLL; 25°C for 60 min
# Summary of the method: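 His-Menin (M1-L615, 150 nM) preincubated with compound 15 min at 25 °C in HEPES pH 7.5, 50 mM NaCl, 1 mM DTT, 0.01% BSA, then 15 nM FITC-MLL4-43 peptide added for 60 min at 25 °C. Fluorescence polarization read; IC50 from 4-parameter logistic fit, duplicates.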
row,Structure (SMILES),IC50 [nM]
1,"CCS(=O)(=O)N[C@H]1CC[C@H](C(C)N2CC(c3cc(-c4ccc(F)cc4C(=O)N4CCOC[C@H]4C)c4cnn(C)c4c3)C2)CC1 (stereo partly drawn) [Example 178, N-[(1r,4r)-4-{1-[3-(4-{4-fluoro-2-[(3R)-3-methylmorpholin-4-carbonyl]phenyl}-1-methyl-1H-indazol-6-yl)azacyclobutan-1-yl]ethyl}cyclohexyl]ethan-1-sulfonamide]",115
2,CCN(C(=O)c1cc(F)ccc1-c1cc(N2CCN(C(=O)[C@H]3N[C@@H]4CC[C@H]3C4)CC2)cn2c(C)ncc12)C(C)C [Example 88],52
3,CC[C@H](C)[C@H](NC)C(=O)N1CC(c2cc(-c3ccc(F)cc3C(=O)N(CC)C(C)C)c3c(F)nc(C)n3c2)C1 [Example 316],99

# Same assay, conditions: fluorescence polarization; 150 nM His-Menin, 15 nM FITC-MLL; 25°C for 60 min; read-out: Menin-MLL IC50
row,IC50 [nM],Structure (SMILES)
1,2.9,"CCN(C(=O)c1cc(F)ccc1-c1cc(C2CN(C(CCCN3CCN(CCO)CC3)C(C)C)C2)cc2c(C)ncn12)C(C)C (stereo not shown) [Example 466, N-ethyl-5-fluoro-2-[7-(1-{6-[4-(2-hydroxyethyl)piperazin-1-yl]-2-methylhexan-3-yl}azacyclobutan-3-yl)-1-methylimidazo[1,5-a]pyridin-5-yl]-N-(isopropyl)benzamide]"
2,3.8,CCN(C(=O)c1cc(F)ccc1-c1cc(C2CN([C@H](CCCN3CCN(CCOC)C(=O)C3)C(C)C)C2)cn2c(C)ncc12)C(C)C [Example 496]
3,98,CNC(=O)N1CCC(CN2CC(c3cc(-c4ccc(F)cc4C(=O)N4CCOC[C@H]4C)c4cnn(C)c4c3)C2)CC1 [Example 172]
4,18.5,"CCN(C(=O)c1cc(F)ccc1-c1cc(C2CCN(C[C@H]3CC[C@H](NC(=O)OC(C)(C)C)CC3)C2)cn2cncc12)C(C)C (mixture of isomers) [Example 21, N-[(1r,4r)-4-{[3-(8-{2-[ethyl(isopropyl)aminoformyl]-4-fluorophenyl}imidazo[1,5-a]pyridin-6-yl)pyrrolidin-1-yl]methyl}cyclohexyl]tert-butyl carbamate]"
5,9,"CCNC(=O)N1CCC([C@@H](C)N2CC(c3cc(-c4ccc(F)cc4C(=O)N(CC)C(C)C)c4c(F)nc(C)n4c3)C2)CC1 [Example 282-1, N-ethyl-4-[(1R)-1-[3-(8-{2-[ethyl(isopropyl)aminoformyl]-4-fluorophenyl}-1-fluoro-3-methylimidazo[1,5-a]pyridin-6-yl)azacyclobutan-1-yl]ethyl]piperidin-1-formamide]"
6,57,CCS(=O)(=O)N[C@H]1CC[C@H](CN2CC(c3cc(-c4ccc(F)cc4C(=O)N4CCC[C@H]4C)c4cnn(C)c4c3)C2)CC1 [Example 167]
7,126,CCN1CCN(CCC[C@@H](C(C)C)N2CC(c3cc(-c4ccc(F)cc4C(=O)N4CCOC[C@H]4C)c4cnc(C)n4c3)C2)CC1 [Example 324-1]
8,13.5,"Cc1nc(F)c2c(-c3ccc(F)cc3C(=O)N3CCOC[C@H]3C)cc(C3CN([C@@H](CO[C@@H]4CCCN(C)C4)C(C)C)C3)cn12 [Example 297-2, (3R)-4-[5-fluoro-2-(1-fluoro-3-methyl-6-{1-[(2R)-3-methyl-1-{[(3R)-1-methylpiperidin-3-yl]oxy}butan-2-yl]azacyclobutan-3-yl}imidazo[1,5-a]pyridin-8yl)benzoyl]-3-methylmorpholine]"
9,23,"Cc1nc(F)c2c(-c3ccc(F)cc3C(=O)N3CCOC[C@H]3C)cc(C3CN([C@@H](CN4CCN(C)CC4)C(C)C)C3)cn12 [Example 368-1, (3R)-4-[5-fluoro-2-(1-fluoro-3-methyl-6-{1-[(2R)-3-methyl-1-(4-methylpiperazin-1-yl)butan-2-yl]azacyclobutan-3-yl}imidazo[1,5-a]pyridin-8-yl)benzoyl]-3-methylmorpholine]"
10,20,CC(=O)N1CC2CC(C1)N2CCC[C@H](C(C)C)N1CC(c2cc(-c3ccc(F)cc3C(=O)N3CCOC[C@H]3C)c3cnn(C)c3c2)C1 [Example 386]
11,165,CC(C)N(CC(F)F)C(=O)c1cc(F)ccc1-c1cc(C2CCN(C[C@@H]3CC[C@@H](NC(=O)OC(C)(C)C)CO3)C2)cc2c1cnn2C (stereo partly shown) [Example 158]
12,3.1,CCN(C(=O)c1cc(F)ccc1-c1cc(C2CN([C@H](CCCN3CCN(C4CC4)CC3)C(C)C)C2)cn2c(C)ncc12)C(C)C [Example 376]
13,80,"Cc1nc(F)c2c(-c3ccc(F)cc3C(=O)N3CCOC[C@H]3C)cc(C3CN([C@H](C)C4CCOCC4)C3)cn12 [Example 238-1, (3R)-4-[5-fluoro-2-(1-fluoro-3-methyl-6-{1-[(1R)-1-(oxacyclohexan-4-yl)ethyl]azacyclobutan-3-yl}imidazo[1,5-a]pyridin-8-yl)benzoyl]-3-methylmorpholine]"
14,56,COC1CCN(CCCC(C(C)C)N2CC(c3cc(-c4ccc(F)cc4C(=O)N4CCOCC4C)c4c(F)nc(C)n4c3)C2)C1 (stereo not shown) [Example 201-2]
15,14,"CCN(C(=O)c1cc(F)ccc1-c1cc(C2CN(C(C[C@@H](O)CO)C(C)C)C2)cn2c(C)ncc12)C(C)C (stereo partly drawn) [Example 438, 2-(6-{1-[(5R)-5,6-dihydroxyl-2-methylhexan-3-yl]azacyclobutan-3-yl}-3-methylimidazo[1,5-a]pyridin-8-yl)-N-ethyl-5-fluoro-N-(isopropyl)benzamide]"
16,1.1,CCN(C(=O)c1cc(F)ccc1-c1cc(C2CN([C@H](CCCN3CC4COCC(C3)N4C(=O)OC(C)(C)C)C(C)C)C2)cn2c(C)ncc12)C(C)C [Example 478]
17,2,"Cc1nc(F)c2c(-c3ccc(F)cc3C(=O)N3CCOC[C@H]3C)cc(C3CN([C@H](CO[C@H]4CCN(C)C4)C(C)C)C3)cn12 [Example 322, (3R)-4-[5-fluoro-2-(1-fluoro-3-methyl-6-{1-[(2S)-3-methyl-1-{[(3S)-1-methylpyrrolidin-3-yl]oxy}butan-2-yl]azacyclobutan-3-yl}imidazo[1,5-a]pyridin-8yl)benzoyl]-3-methylmorpholine]"
18,24,CCOC(=O)N1CCC(CN2CC(c3cc(-c4ccc(F)cc4C(=O)N4CCOC[C@H]4C)c4c(F)nc(C)n4c3)C2)CC1 [Example 270]
19,190,"CCN(C(=O)c1cc(F)ccc1-c1cc(C2(O)CN([C@@H](CCCN3CCN(CCO)CC3)C(C)C)C2)cn2c(C)ncc12)C(C)C [Example 464-2, N-ethyl-5-fluoro-2-(6-{3-hydroxyl-1-[(3S)-6-[4-(2-hydroxylethyl)piperazin-1-yl]-2-methylhexan-3-yl]azacyclobutan-3-yl}-3-methylimidazo[1,5-a]pyridin-8-yl)-N-(isopropyl)benzamide]"
20,152,"CCN(C(=O)c1cc(F)ccc1-c1cc(N2CCN(C(=O)[C@@H]3CCCN3)CC2)c(Cl)n2c(C)ncc12)C(C)C [Example 115, 2-(5-chloro-3-methyl-6-{4-[(2S)-pyrrolidin-2-carbonyl]piperazin-1-yl}imidazo[1,5-a]pyridin-8-yl)-N-ethyl-5-fluoro-N-(isopropyl)benzamide]"
21,2.2,CCN(C(=O)c1cc(F)ccc1-c1cc(C2CN([C@H](CCCN3CCN[C@@H](CF)C3)C(C)C)C2)cn2c(C)ncc12)C(C)C [Example 500]
22,54,"CCS(=O)(=O)N[C@@H]1CC[C@@H](CN2CC[C@H](c3cc(-c4ccc(F)cc4C(=O)N(CC(F)F)C(C)C)c4cnc(C)n4c3)C2)OC1 [Example 163-2, N-(2,2-difluoroethyl)-2-{6-[(3R)-1-{[(2S,5R)-5-ethanesulfonamidooxacyclohexan-2-yl]methyl}pyrrolidin-3-yl]-3-methylimidazo[1,5-a]pyridin-8-yl}-5-fluoro-N-(isopropyl)benzamide]"
